Experimental data published in paper PMC7793975, “Design and Optimization of Quinazoline Derivatives: New Non-nucleoside Inhibitors of Bovine Viral Diarrhea Virus” (Frontiers in Chemistry, 2020).
Read-outs that look alike come from different tables or passages of the source.

Legend:
MDBK cells = test: Cytotoxicity assay (MTS/PMS); conditions: MDBK cells, 3 days
Method: (§1) (A) Cytotoxicity. Sub-confluent MDBK cell monolayers grown in 96-well plates were treated with 2-fold serial dilutions of each compound in IM. Mock-treated cells were added as control. Cells were incubated and allowed to proliferate for 3 days at 37°C and 5% CO2. Cell viability was then determined by the MTS/PMS method. (B) Antiviral activity. Sub-confluent MDBK cell monolayers grown in 96-well plates were infected with BVDV NADL (MOI = 0.01) and treated with different concentrations of the compounds. Mock-infected cells and mock-treated infected cells were included as controls in each plate. After 3 days at 37°C and 5% CO2, cell viability was determined by the MTS/PMS method, and the percentage of the viral CPE inhibition was calculated.
(§2) MDBK cells were seeded in 96-well plates at a density of 1 × 10^4 cells per well in GM. After 24 h, the culture medium was removed, monolayers were washed twice with phosphate-buffered saline (PBS), and serial dilutions of the test compounds were made in E-MEM supplemented with donor horse serum (DHS, Gibco, IM) and added. Cultures were incubated for 3 days at 37°C, and then, cell viability was determined by the MTS/PMS method according to the manufacturer's instructions (Promega). After incubation for 3 h at 37°C and 5% CO2, the absorbance was determined at 490 nm. The 50% cytotoxic concentration (CC50) was defined as the concentration of compound that inhibited the proliferation of exponentially growing cells by 50% and was calculated by interpolation in dose–response curves.

[1] = Cytotoxicity assay (MTS/PMS); conditions: bovine
Method: as §1, §2

BVDV type 1 NADL strain = test: Anti-BVDV assay (CPE reduction, MTS/PMS); format: cell-based, Bovine viral diarrhea virus; conditions: for EC50: BVDV NADL in MDBK cells, MOI 0.01, 3 days, reduces viral CPE by 50%, Inactive: <50% of inhibition of CPE at MNCC; for SI (CC50/EC50): in vitro selectivity index, MDBK cells / BVDV NADL
Method: (A) Cytotoxicity. […] Mock-treated cells were added as control. […] (B) Antiviral activity.
Madin-Darby bovine kidney cells (MDBK NBL-1; ATCC CCL-22) were grown in Eagle's Minimum Essential Medium (E-MEM), supplemented with 10% biotechnological fetal bovine serum (Internegocios, Argentina) (GM) at 37°C and 5% CO2. The BVDV type 1 NADL strain, cytopathic biotype (BVDV-1, ATCC VR 534), was provided by Dr. Laura Weber (INTA Castelar, Argentina).
Then, serial dilutions of the test compounds in IM were added. […] After incubation for 3 days at 37°C and 5% CO2, the culture medium was removed, cell monolayers were washed twice with PBS, and IM supplemented with MTS/PMS was added to each well. The absorbance of each well was read at 490 nm. The EC50 was defined as the concentration of compound that prevented 50% of the virus-induced CPE and was calculated by interpolation in dose–response curves.

[2] = Bovine viral diarrhea virus isolates and strains, MDBK, 72 h, read-out: EC50

c1ccc(-c2nc(NCCN3CCOCC3)c3ccccc3n2)cc1 [Compound 1, N-(2-morpholinoethyl)-2-phenylquinazolin-4-amine]
MNCC (maximum non-cytotoxic concentration) (MDBK cells): 10.9 ± 1.4 µM
CC50 at 3 days ([1]; MDBK cells): 55.9 ± 8.2 µM
EC50 (BVDV type 1 NADL strain; [2]): 9.7 ± 0.5 µM
SI (CC50/EC50) (BVDV type 1 NADL strain): 5.8

c1ccc(-c2nc(NCc3cccnc3)c3ccccc3n2)cc1 [Compound 1.1]
MNCC (maximum non-cytotoxic concentration) (MDBK cells): 12.0 ± 0.1 µM
EC50 (BVDV type 1 NADL strain): Inactive^f

Cc1ccc(CNc2nc(-c3ccccc3)nc3ccccc23)cc1 [Compound 1.2]
MNCC (maximum non-cytotoxic concentration) (MDBK cells): 6.0 ± 0.2 µM
EC50 (BVDV type 1 NADL strain): Inactive

COc1ccc(Nc2nc(-c3ccccc3)nc3ccccc23)cc1 [Compound 1.3]
MNCC (maximum non-cytotoxic concentration) (MDBK cells): 6.0 ± 0.2 µM
EC50 (BVDV type 1 NADL strain): Inactive

c1ccc(CNc2nc(-c3ccccc3)nc3ccccc23)cc1 [Compound 1.4]
MNCC (maximum non-cytotoxic concentration) (MDBK cells): 6.0 ± 0.3 µM
EC50 (BVDV type 1 NADL strain): Inactive

FC(F)(F)c1cccc(CNc2nc(-c3ccccc3)nc3ccccc23)c1 [Compound 1.5]
MNCC (maximum non-cytotoxic concentration) (MDBK cells): 6.0 ± 0.1 µM
EC50 (BVDV type 1 NADL strain): Inactive

CCCCCCNc1nc(-c2ccccc2)nc2ccccc12 [Compound 1.6, N-Hexyl-2-phenylquinazolin-4-amine]
MNCC (maximum non-cytotoxic concentration) (MDBK cells): 12.0 ± 0.2 µM
EC50 (BVDV type 1 NADL strain): Inactive

CN(C)CCCNc1nc(-c2ccccc2)nc2ccccc12 [Compound 1.7, N^1,N^1-Dimethyl-N^3-(2-phenylquinazolin-4-yl)propane-1,3-diamine]
MNCC (maximum non-cytotoxic concentration) (MDBK cells): 18.6 ± 2.6 µM
CC50 at 3 days ([1]; MDBK cells): 57 ± 0.01 µM
EC50 (BVDV type 1 NADL strain; [2]): 4.6 ± 1 µM
SI (CC50/EC50) (BVDV type 1 NADL strain): 12.4

CN1CCN(c2nc(-c3ccccc3)nc3ccccc23)CC1 [Compound 1.8, 4-(4-Methylpiperazin-1-yl)-2-phenylquinazoline]
MNCC (maximum non-cytotoxic concentration) (MDBK cells): 19.8 ± 4.0 µM
CC50 at 3 days ([1]; MDBK cells): 68 ± 8.4 µM
EC50 (BVDV type 1 NADL strain; [2]): 1.4 ± 0.1 µM
SI (CC50/EC50) (BVDV type 1 NADL strain): 48.6

c1ccc(-c2nc(NCCN3CCCCC3)c3ccccc3n2)cc1 [Compound 1.10, 2-Phenyl-N-[2-(Piperidin-1-yl)ethyl]quinazolin-4-amine]
MNCC (maximum non-cytotoxic concentration) (MDBK cells): 6.4 ± 1.1 µM
CC50 at 3 days ([1]; MDBK cells): 19.6 ± 6.3 µM
EC50 (BVDV type 1 NADL strain; [2]): 1.4 ± 0.8 µM
SI (CC50/EC50) (BVDV type 1 NADL strain): 14.0

c1ccc(CN2CCC(Nc3nc(-c4ccccc4)nc4ccccc34)CC2)cc1 [Compound 1.11, N-(1-Benzylpiperidin-4-yl)-2-phenylquinazolin-4-amine]
MNCC (maximum non-cytotoxic concentration) (MDBK cells): 7.5 ± 0.1 µM
CC50 at 3 days ([1]; MDBK cells): 22.2 ± 1.2 µM
EC50 (BVDV type 1 NADL strain): Inactive

CC1(C)CC(Nc2nc(-c3ccccc3)nc3ccccc23)CC(C)(C)N1 [Compound 1.12, 2-Phenyl-N-(2,2,6,6-tetramethylpiperidin-4-yl)quinazolin-4-amine]
MNCC (maximum non-cytotoxic concentration) (MDBK cells): 3.3 ± 0.7 µM
CC50 at 3 days ([1]; MDBK cells): 7.4 ± 0.03 µM
EC50 (BVDV type 1 NADL strain; [2]): 1.4 ± 0.3 µM
SI (CC50/EC50) (BVDV type 1 NADL strain): 5.3

[O-][n+]1ccc(CNc2nc(-c3ccccc3)nc3ccccc23)cc1 [Compound 1.13, 4-{[(2-Phenylquinazolin-4-yl)amino]methyl}pyridine 1-oxide]
CC50 at 3 days ([1]; MDBK cells): > 100 µM
EC50 (BVDV type 1 NADL strain): Inactive

CN1CCN(c2nc(-c3ccc([N+](=O)[O-])cc3)nc3ccccc23)CC1 [Compound 1.14, 4-(4-Methylpiperazin-1-yl)-2-(4-nitrophenyl)quinazoline]
MNCC (maximum non-cytotoxic concentration) (MDBK cells): 8.7 ± 1.6 µM
CC50 at 3 days ([1]; MDBK cells): 13 ± 3.4 µM
EC50 (BVDV type 1 NADL strain): Inactive

O=[N+]([O-])c1ccc(-c2nc(NCCN3CCCCC3)c3ccccc3n2)cc1 [Compound 1.15, 2-(4-Nitrophenyl)-N-[2-(piperidin-1-yl)ethyl]quinazolin-4-amine]
MNCC (maximum non-cytotoxic concentration) (MDBK cells): 14.6 ± 3.1 µM
CC50 at 3 days ([1]; MDBK cells): 30.2 ± 0.5 µM
EC50 (BVDV type 1 NADL strain; [2]): 5.8 ± 0.6 µM
SI (CC50/EC50) (BVDV type 1 NADL strain): 5.2

O=[N+]([O-])c1ccc(-c2nc(N3CCN(CCO)CC3)c3ccccc3n2)cc1 [Compound 1.16, 2-{4-[2-(4-Nitrophenyl)quinazolin-4-yl]piperazin-1-yl}ethanol]
MNCC (maximum non-cytotoxic concentration) (MDBK cells): 5.9 ± 1.4 µM
CC50 at 3 days ([1]; MDBK cells): 12 ± 2.1 µM
EC50 (BVDV type 1 NADL strain): Inactive

OCCN1CCN(c2nc(-c3ccc(Cl)cc3Cl)nc3ccccc23)CC1 [Compound 1.17, 2-{4-[2-(2,4-Dichlorophenyl)quinazolin-4-yl]piperazin-1-yl}ethanol]
MNCC (maximum non-cytotoxic concentration) (MDBK cells): 17.4 ± 3.0 µM
CC50 at 3 days ([1]; MDBK cells): 31.5 ± 5.7 µM
EC50 (BVDV type 1 NADL strain): Inactive

CN(C)c1ccc(-c2nc(N3CCN(CCO)CC3)c3ccccc3n2)cc1 [Compound 1.18, 2-(4-{2-[4-(N,N-Dimethylamino)phenyl]quinazolin-4-yl}piperazin-1-yl)ethanol]
MNCC (maximum non-cytotoxic concentration) (MDBK cells): 26.1 ± 1.2 µM
CC50 at 3 days ([1]; MDBK cells): 61 ± 2.5 µM
EC50 (BVDV type 1 NADL strain; [2]): 3.5 ± 0.6 µM
SI (CC50/EC50) (BVDV type 1 NADL strain): 17.4

COc1ccc(-c2nc(N3CCN(C)CC3)c3ccccc3n2)cc1 [Compound 1.19, 2-(4-Methoxyphenyl)-4-(4-Methylpiperazin-1-yl)quinazoline]
MNCC (maximum non-cytotoxic concentration) (MDBK cells): 18.3 ± 0.3 µM
CC50 at 3 days ([1]; MDBK cells): 37.1 ± 0.2 µM
EC50 (BVDV type 1 NADL strain; [2]): 12.8 ± 0.3 µM
SI (CC50/EC50) (BVDV type 1 NADL strain): 2.9

Cc1ccc(-c2nc(N3CCN(CCO)CC3)c3ccccc3n2)cc1 [Compound 1.20, 2-{4-[2-(p-Tolyl)quinazolin-4-yl]piperazin-1-yl}ethanol]
MNCC (maximum non-cytotoxic concentration) (MDBK cells): 30.5 ± 2.1 µM
CC50 at 3 days ([1]; MDBK cells): 55.4 ± 4 µM
EC50 (BVDV type 1 NADL strain; [2]): 8.5 ± 3.4 µM
SI (CC50/EC50) (BVDV type 1 NADL strain): 6.5

Clc1ccc2c(NCCN3CCOCC3)ncnc2c1 [Compound 1.21, 7-Chloro-N-(2-Morpholinoethyl)quinazolin-4-amine]
MNCC (maximum non-cytotoxic concentration) (MDBK cells): 17.3 ± 5.2 µM
CC50 at 3 days ([1]; MDBK cells): 59.3 ± 10.7 µM
EC50 (BVDV type 1 NADL strain; [2]): 2.3 ± 0.5 µM
SI (CC50/EC50) (BVDV type 1 NADL strain): 25.8

OCCN1CCN(c2ncnc3cc(Cl)ccc23)CC1 [Compound 1.22, 2-[4-(7-Chloroquinazolin-4-yl)piperazin-1-yl]ethan-1-ol]
CC50 at 3 days ([1]; MDBK cells): > 100 µM
EC50 (BVDV type 1 NADL strain; [2]): 25.8 ± 1.2 µM

Clc1ccc2c(NCCN3CCCCC3)ncnc2c1 [Compound 1.23, 7-Chloro-N-[2-(Piperidin-1-yl)ethyl]quinazolin-4-amine]
CC50 at 3 days ([1]; MDBK cells): > 100 µM
EC50 (BVDV type 1 NADL strain; [2]): 4.1 ± 2.2 µM
SI (CC50/EC50) (BVDV type 1 NADL strain): >24.4

CN1CCN(c2ncnc3cc(Cl)ccc23)CC1 [Compound 1.24, 7-Chloro-4-(4-Methylpiperazin-1-yl)quinazoline]
CC50 at 3 days [1]: > 100 µM
EC50 (BVDV type 1 NADL strain; [2]): 9.3 ± 2.1 µM
SI (CC50/EC50) (BVDV type 1 NADL strain): >10.8
